Read-outs that look alike come from different tables or passages of the source. Non-standard residues stand in square brackets, D forms with d. Residues, ends and D or L forms follow the SMILES beside them. Ac6c = NC1(C(=O)O)CCCCC1
Columns and labels:
[1] = dog, in vivo
Method: (§1) The objective of the study conducted at ITR Laboratories Canada Inc (Baie d'Urfe, Quebec, Canada) was to determine the pharmacokinetic profile of ARV-1502 following single intravenous or intramuscular injection administration to Sprague-Dawley rats and Beagle dogs.
(§2) For the dog study, ARV-1502 was administered once IM (divided equally over 2 sites) and once IV (1 week apart) as detailed in Table 2. Following dosing, blood was collected at the same time points noted above for the rat study.
(§3) Aliquots of rat or Beagle plasma (20 μL) were spiked with standard peptide Onc72 (0.35 μg/mL plasma, 1.2 μL). Samples were diluted with aqueous TFA in two steps (0.2% v/v, 20 μL and 0.1% v/v, 260 μL) and loaded on an Oasis HLB 96-well-SPE-plate (5 mg sorbent per well, Waters). The samples were washed twice with aqueous TFA (0.1% v/v, 1 mL) and eluted in two steps with aqueous acetonitrile (30% v/v, 150 μL) containing formic acid (0.1% v/v). The fractions were dried in a vacuum centrifuge (SpeedVac, 60°C), reconstituted with aqueous methanol (75% v/v, 20 μL) containing formic acid (0.1% v/v), and diluted with aqueous acetonitrile (3% v/v, 100 μL) containing formic acid (0.1%).
(§4) A quadrupole-Orbitrap mass spectrometer (Q Exactive plus™, Thermo Scientific) was coupled online to an uHPLC (Vanquish™, Thermo Scientific). Separation was achieved on a Jupiter C18 column (inner diameter: 1 mm, length: 150 mm, particle size: 5 μm, pore size: 130 Å, Phenomenex Ltd.) at 55°C using a flow rate of 200 μL/min and a linear gradient of 3 to 23% (v/v) aqueous acetonitrile containing formic acid (0.1%) within 5 min.
(§5) ARV-1502 was quantitated by the peak area of an extracted ion chromatogram (XIC) obtained from the MS/MS using Xcalibur 4.0.27.21 software. The peak area of ARV-1502 corrected by using the peak area of Onc72.

in vivo [2] = settings: Beagle, dog
Method: as §1, §2, §3, §4, §5

in vivo [3] = settings: Sprague-Dawley, rat; for level at 0.5 h: plasma concentration after 30 min
Method: (§6) A series of eight blood samples (~0.5 mL each) was collected in rats on Day 1. Following IM administration, the blood was collected at 5, 15, 30, and 45 min and at 1, 1.5, 2, and 3-h post-dose. After IV administration, blood was collected at 2, 5, 15, 30, and 45 min and at 1, 1.5, and 2-h post-dose. Animals were euthanized after the last blood collection by carbon dioxide asphyxiation followed by cervical dislocation and discarded without further examination. Safety parameters monitored on the study were mortality and clinical signs. Body weights (BW) were recorded to calculate the dose only. Blood sampling was performed for pharmacokinetic evaluation.
as §3, §4
(§7) Pharmacokinetic datasets were evaluated with a PKSolver add-in for Microsoft Excel using a non-compartmental analysis (Zhang et al., [2010]).

[4] = rat, in vivo
Method: as §6, §3, §4, §7

Q: For `CC(C)C[C@H](NC(=O)[C@H](Cc1ccc(O)cc1)NC(=O)[C@@H]1CCCN1C(=O)[C@H](CCCNC(=N)N)NC(=O)[C@@H]1CCCN1C(=O)[C@H](CCCCN)NC(=O)[C@H](CC(=O)O)NC(=O)[C@@H]1CCCN1C(=O)[C@H](CCCNC(=N)N)NC(=O)C1(N)CCCCC1)C(=O)N1CCC[C@H]1C(=O)N[C@@H](CCCNC(=N)N)C(=O)N1CCC[C@H]1C(=O)N[C@@H](CCCNC(=N)N)C(=O)N1CCC[C@H]1C(=O)N1CCC[C@H]1C(=O)N[C@@H](CCCNC(=N)N)C(=O)N1CCC[C@H]1C(=O)N[C@H](C(=O)N[C@@H](CCCNC(=N)N)C(N)=O)C(C)C` [ARV-1502, Chex1-Arg20 amide] (H-[Ac6c]RPDKPRPYLPRPRPPRPVR-NH2), which “clearance rate in dogs relative to the rate in rats” value [1] is on record?
A: Its value is “around half”.

Q: What about the “volume of distribution after IM, fold larger than the BV” value [1] of the same compound?
A: The value was “more than 9 fold”.

Q: What about the “AUMC0→∞” value ([1]; iv, 0.075 mg/kg) of the same compound?
A: Its value is 820.3 μg·min^2/mL.

Q: What about the k ([1]; iv, 0.075 mg/kg) of the same compound?
A: Its k is 0.09 min⁻¹.

Q: What about the “volume of distribution as share of circulating blood volume (BV)” value ([1]; iv, 0.075 mg/kg) of the same compound?
A: Its value is ~ 84%.

Q: What about the “plasma concentration 2 min after administration” value ([1]; male, Beagle, iv, 75 ug/kg, 2 min) of the same compound?
A: Its value is 690 ± 150 ng/mL.

Q: And the half-life (in vivo [2]; im)?
A: Its half-life is 15.8 min.

Q: And the Vd (in vivo [2]; im, 0.75 mg/kg)?
A: The Vd was 8.14 L.

Q: What about the C0 (in vivo [2]; iv, 0.075 mg/kg) of the same compound?
A: Its C0 is 1040 ng/mL.

Q: And the Cmax (in vivo [2]; iv, 0.075 mg/kg)?
A: The Cmax was 700 ng/mL.

Q: And the MRT (in vivo [2]; iv, 0.075 mg/kg)?
A: Its MRT is 7.07 min.

Q: What about the Vd (in vivo [2]; iv, 0.075 mg/kg) of the same compound?
A: Its Vd is 0.735 L.

Q: What about the half-life (in vivo [2]; iv, 0.075 mg/kg) of the same compound?
A: Its half-life is 7.6 min.

Q: And the Cmax (in vivo [2]; male, im, 0.75 mg/kg)?
A: The Cmax was 1000 ng/mL.

Q: What about the Tmax (in vivo [2]; male, im, 0.75 mg/kg) of the same compound?
A: Its Tmax is 15 min.

Q: And the level at 5 min (in vivo [2]; male, im, 0.75 mg/kg, plasma concentration at 5 min)?
A: The level at 5 min was 940 ± 280 ng/mL.

Q: And the level at 0.25 h (in vivo [2]; male, im, 0.75 mg/kg, plasma concentration at 15 min)?
A: Its level at 0.25 h is 1100 ± 200 ng/mL.

Q: And the AUC(0-inf) (in vivo [2]; male, iv, 0.075 mg/kg)?
A: Its AUC(0-inf) is 144 ng·h/mL.

Q: And the level at 2 min (in vivo [2]; male, iv, 75 ug/kg, plasma concentration 2 min after administration)?
A: Its level at 2 min is 700 ng/mL.

Q: What about the level at 0.5 h (in vivo [2]; male, iv, 75 ug/kg, plasma concentration after 30 min) of the same compound?
A: The level at 0.5 h was 7.6 ± 1.3 ng/mL.

Q: What about the half-life (in vivo [3]; im) of the same compound?
A: Its half-life is 24.2 min.

Q: What about the MRT (in vivo [3]; iv, 0.25 mg/kg) of the same compound?
A: Its MRT is 6.22 min.

Q: What about the half-life (in vivo [3]; iv, 0.25 mg/kg) of the same compound?
A: The half-life was 15.4 min.

Q: What about the Cmax (in vivo [3]; both, im, 2.5 mg/kg) of the same compound?
A: Its Cmax is 12000 ng/mL.

Q: What about the Tmax (in vivo [3]; both, im, 2.5 mg/kg) of the same compound?
A: The Tmax was 15 min.

Q: And the level at 5 min (in vivo [3]; both, im, 2.5 mg/kg, plasma concentration after 5 min)?
A: Its level at 5 min is 11000 ± 3300 ng/mL.

Q: And the level at 0.5 h (in vivo [3]; both, im, 2.5 mg/kg)?
A: Its level at 0.5 h is roughly 900 ng/mL.

Q: What about the level at 3 h (in vivo [3]; both, im, 2.5 mg/kg, plasma concentration within 3 h) of the same compound?
A: The level at 3 h was 16 ng/mL.

Q: What about the AUC(0-inf) (in vivo [3]; both, iv, 0.25 mg/kg) of the same compound?
A: Its AUC(0-inf) is 521 ng·h/mL.

Q: And the Cmax (in vivo [3]; both, iv, 0.25 mg/kg)?
A: The Cmax was 3410 ng/mL.

Q: What about the Tmax (in vivo [3]; both, iv, 0.25 mg/kg) of the same compound?
A: Its Tmax is 2 min.

Q: And the level at 0.5 h (in vivo [3]; both, iv, 0.25 mg/kg)?
A: The level at 0.5 h was 64.2 ± 7.3 ng/mL.

Q: And the level at 2 h (in vivo [3]; both, iv, 0.25 mg/kg, plasma concentration after 2 h)?
A: The level at 2 h was 2 to 4 ng/mL.

Q: What about the level at 5 min (in vivo [3]; female, im, 2.5 mg/kg, plasma concentration after 5 min (initial peptide level)) of the same compound?
A: The level at 5 min was 13800 ± 1900 ng/mL.

Q: And the level at 0.25 h (in vivo [3]; female, im, 2.5 mg/kg, plasma concentration at 15 min)?
A: The level at 0.25 h was 19000 ± 4900 ng/mL.

Q: What about the level at 5 min (in vivo [3]; male, im, 2.5 mg/kg, plasma concentration after 5 min (initial peptide level)) of the same compound?
A: Its level at 5 min is 8200 ± 1400 ng/mL.

Q: What about the level at 0.5 h (in vivo [3]; male, im, 2.5 mg/kg) of the same compound?
A: The level at 0.5 h was 1000 ng/mL.

Q: What about the “plasma concentration after 2 h” value ([4]; both, Sprague-Dawley, iv, 0.25 mg/kg, 2 h) of the same compound?
A: Its value is 2.2 ± 0.4 ng/mL.

Q: And the “Cmax extrapolated in proportion to dose” value [4]?
A: The value was ~ 34 μg/mL.

Q: And the “volume of distribution after IM, fold higher than after IV” value [4]?
A: The value was “more than 4 fold”.

Q: What about the “AUMC0→∞” value ([4]; iv, 0.25 mg/kg) of the same compound?
A: The value was 194.6 μg·min^2/mL.

Q: What about the k ([4]; iv, 0.25 mg/kg) of the same compound?
A: Its k is 0.045 min⁻¹.

Q: What about the “plasma concentration lower in male rats than in female rats” value ([4]; iv, 0.25 mg/kg) of the same compound?
A: Its value is “around 25%”.

Q: And the “volume of distribution as share of the theoretical circulating blood volume” value ([4]; iv, 0.25 mg/kg)?
A: Its value is 85%.
